The values that follow come from patent publication US6248768A, “Benzimidazole derivatives and pharmacologically acceptable salts thereof” (Taiho Pharmaceutical Co., Ltd., priority 1997, dated 2001).

pIC50: −log10 of the molar value.

Experiment [1] relates to Mouse ear edema reaction (egg albumin-induced). Description: Ear Edema Reaction Inhibitory Activity in Mice. The format is in vivo, BALB/c mice. The settings on record: oral, 1 hour before induction, ear thickness 1 hour after induction. As to the method: Ear Edema Reaction Inhibitory Activity in Mice [Test Inflammation]
This test was test was carried out in accordance with the method of Sawada et al. (Clin. Exp. Allergy, Vol. 27, pp. 225-231, 1996). Each of BALB/c mice was immunized by the intraperitoneal injection of 1 μg of egg albumin which had been adsorbed to 1 mg of ALUM. After 14 days of the immunization, ear edema reaction was induced by intracutaneous injection of 1 μg of egg albumin into mouse earlobe. Ear edema (×10^2 mm) was calculated by measuring thickness of the ear before and 1 hour after the induction with a dial thickness gage (Peacok). Each of the drugs to be tested (compounds 1 and 2) was suspended in 0.5% hydropropylmethylcellulose (HPMC) solution and orally administered 1 hour before the reaction induction. Ear edema caused by the antigen was calculated by subtracting ear edema after respective time of induction in the case of the same treatment of normal mice, and the ear edema inhibition ratio (%) of the drugs to be tested was calculated based on the solvent-administered (control) group.

The target of a further experiment is PDE(IV). In words: Phosphodiesterase IV (PDE (IV)) Inhibitory Activity. Conditions: rat brain PDE(IV); 3H-cAMP 1 μM; 37° C., 10 minutes; read-out: PDE(IV) inhibition IC50. In kind it is biochemical. As to the method: Phosphodiesterase IV (PDE (IV)) Inhibitory Activity
Purification of PDE (IV) and measurement of its activity were carried out by partially modifying the method of Saeki et al. (Biochem. Pharmacol., Vol. 46, 833-839, 1993). That is, PDE(IV) was purified by centrifuging rat brain homogenate at 105,000×g, applying the resulting supernatant to a Q-Sepharose column and then eluting the protein with a density gradient of 0 to 0.5 M NaCl.
Activity of PDE(IV) was measured by the following two step procedure. Using 3H-cAMP (1 μM in final concentration) as the substrate, the reaction was carried out at 37° C. for 10 minutes in a reaction solution containing tris(hydroxyl)aminomethane (50 mM, pH B8.0), EGTA (0.1 mM) and MgCl2 (0.1 mM) and then the reaction was stopped by incubating the reaction solution at 95° C. for 5 minutes. The thus formed 5'-AMP was hydrolyzed with 5'-nucleotidase, and AG1 X-8 resin was added thereto to effect adsorption of unreacted CAMP. After centrifugation, 3H-adenosinewas counted using a scintillation counter.

Experiment [2] concerns Airway reactivity acceleration (antigen-induced). In words: Antigen-Induced Airway Reactivity Acceleration Inhibitory Activity in Mice [Test on Chronic Inflammation]. The format is in vivo, BALB/c mice. The settings on record: oral, once a day for 10 days, acetylcholine 30 μg/animal i.v. Here is the method:
Antigen-Induced Airway Reactivity Acceleration Inhibitory Activity in Mice [Test on Chronic Inflammation]
The model for this test was prepared out in accordance with the method of Nagai et al. (Life Sciences, Vol. 54, pp. 471-475, 1994). Each of BALB/c mice was immunized by the intraperitoneal injection of 1 μg of egg albumin which had been adsorbed to 1 mg of ALUM. After 14 days of the immunization, each animal was exposed to 1% egg albumin solution using an ultrasonic nebulizer, and this treatment was repeated three times at 3 day intervals. After 24 hours of the final exposure, the airway contraction reaction against intravenously injected acetylcholine (30 μg/animal) was measured as overflow volume (×0.01 ml) by the modified method of Konzett and Rossler under pentobarbital anesthesia. Each of the drugs to be tested (compounds 1 and 2) was suspended in 0.5% HPMC solution and orally administered once a day for a total of 10 days starting from the day before the antigen exposure until the day of final exposure. Accelerated quantity of the airway contraction reaction caused by the antigen exposure was calculated by subtracting the contraction reaction against intravenously injected acetylcholine in the case of the same treatment of normal mice, and the airway reactivity acceleration inhibition ratio (%) of the drugs to be tested was calculated based on the solvent-administered (control) group.

Experiment [3] concerns IL-4 production by CD4^+ T cells. Description: Interleukin-4 (IL-4) Production Inhibitory Activity. The settings on record: 24 h; mouse spleen CD4^+ T cells; IL-4 in supernatant by ELISA after 1 day; read-out: IL-4 production inhibition IC50. The format is cell-based. Here is the method:
Interleukin-4 (IL-4) Production Inhibitory Activity
This test was carried out in accordance with the method of Shelby et al. (J. Allergy Clin. Immunol., Vol. 100, No. 4, 511-519 (1997)). That is, CD4^+ T cells were purified from mouse spleen cells and suspended in 10% FCS-containing RPMI 1640 culture medium, and the cell suspension was inoculated into wells of a 24 well culture plate, which had been coated with anti-rat IgG, at a density of 3×10^6 cells per well. Anti-mouse CD3 antibody and anti-mouse CD28 antibody were added thereto, and the cells were cultured at 37° C. for 3 days in an atmosphere of 5% CO2. The thus grown cells were recovered, washed three times with HBSS (Hank's balanced salt solution) and then suspended in 10% FCS-containing RPMI 1640 culture medium. The cell suspension was inoculated into wells of a 24 well culture plate at a density of 1×10^6 cells per well, mixed with IL-2 and cultured for additional 3 days. The resulting cells were recovered, washed three times with HBSS and then suspended in 10% FCS-containing RPMI 1640 culture medium. The cell suspension was inoculated into wells of a 24 well culture plate, which had been coated with anti-rat IgG, at a density of 2×10^6 cells per well, anti-mouse CD3 antibody and anti-mouse CD28 antibody were added thereto, and the cells were again cultured for 1 day. The culture supernatant was recovered from each well to measure the amount of produced IL-4 by ELISA. Each drug to be tested was treated at the time of the second addition of anti-mouse CD3 antibody and anti-mouse CD28 antibody to calculate its inhibition percentage based on the control IL-4 production by the addition of the solvent alone, and IC50 (50% inhibition concentration) of each drug to be tested was calculated based on the regression line.
For orientation: In an ELISA, binding on a coated surface is turned into a signal by an enzyme label.

A further experiment deals with IL-4 production. The settings on record: in words, background art; cited from earlier work.

For `COc1ccc(-c2nc3ccc(-n4cncn4)cc3[nH]2)cc1OC(C)C` [Compound 1, 2-(3-isopropoxy-4-methoxyphenyl)-5-(1,2,4-triazol-1-yl)benzimidazole], the “Mouse ear edema reaction inhibition” value in experiment [1] (30 mg/kg) is 60%. Also, the pIC50 (usually the IC50 on a negative log10 scale, so that one unit is a factor of ten) on PDE(IV) was 7.70; in experiment [3], 5.37. For the same compound, the “Airway reactivity acceleration inhibition” value in experiment [2] (10 mg/kg) is 58%.

In the case of `COc1ccc(-c2nc3ccc(-n4cncn4)cc3[nH]2)cc1OC1CCCC1` [Compound 2, 2-(3-cyclopentyloxy-4-methoxyphenyl)-5-(1,2,4-triazol-1-yl)benzimidazole], in experiment [1] (30 mg/kg), the “Mouse ear edema reaction inhibition” value turned out to be 78%. Moreover, in experiment [2] (30 mg/kg), the “Airway reactivity acceleration inhibition” value worked out at 47%.

Regarding `COc1ccc(-c2nc3cc(-n4cncn4)ccc3[nH]2)cc1OCC1CC1` [Compound 11], the pIC50 at PDE(IV) is 5.80; in experiment [3] it was 5.26.

For `COc1ccc(-c2nc3ccc(-n4cncn4)cc3[nH]2)cc1OC1C=CCCC1` (stereo not drawn) [Compound 14, 2-[3-(2-cyclohexenyloxy)-4-methoxyphenyl]-5-(1,2,4-triazol-1-yl)benzimidazole], the negative logarithm of the IC50 (pIC50) was 6.27 at PDE(IV) and 5.21 in experiment [3].

For the compound `COc1ccc(-c2nc3cc(-n4cncn4)ccc3[nH]2)cc1OC/C=C/c1ccccc1` [Compound 18], the pIC50 on PDE(IV) was 7.29; in experiment [3] it was 5.29.

`COc1ccc(-c2nc3cc(-n4cncn4)ccc3[nH]2)cc1OC1C=CCCCC1` (stereo not drawn) [Compound 25]: the results for the pIC50 (on PDE(IV); in experiment [3]) were 6.14 and 5.55, respectively.

Take `COc1ccc(-c2nc3cc(-n4cncn4)ccc3[nH]2)c(OC)c1` [Control compound 2]: the “Mouse ear edema reaction inhibition” value in experiment [1] (30 mg/kg) was 17%. The “Airway reactivity acceleration inhibition” value in experiment [2] (30 mg/kg) was found to be 30%.

For the compound `COc1ccc(-c2nc3cc(C(=O)O)ccc3[nH]2)cc1OC1CCCC1` [Control compound 4], in experiment [1] (100 mg/kg), the “Mouse ear edema reaction inhibition” value was 0%. The “Airway reactivity acceleration inhibition” value in experiment [2] (30 mg/kg) is -17%.

Consider `COc1ccc(-c2nc3cc(C(=O)O)ccc3[nH]2)cc1OC1Cc2ccccc2C1` [Control compound 5], for which, in experiment [1] (100 mg/kg), the “Mouse ear edema reaction inhibition” value is recorded as 0%. Moreover, the “Airway reactivity acceleration inhibition” value in experiment [2] (30 mg/kg) is -3%.

For `COc1ccc(/C(C)=N/OC(N)=O)cc1OC1CCCC1` [PDA-641], in the experiment with IL-4 production, the “IL-4 production inhibitory activity” value is given as “weak”.
